{"source": "patent US4321381A", "about": "“Ergot derivatives” (Farmitalia Carlo Erba S.p.A., priority 1978, dated 1982)", "data": [{"system": "spontaneously hypertensive male rats, strain MHS", "test": "Anti-hypertensive activity in the spontaneously hypertensive rat (MHS): blood pressure and heart rate at the tail", "assay_type": "in vivo", "conditions": "2 mg/kg os, first day, 1 hr after dose", "experimental": "(§1) 1. Spontaneously Hypertensive Rat (MHS)\n(§2) Four spontaneously hypertensive male rats, strain MHS, weight 250 to 300 g for each group were used. The animals were treated for four consecutive days. The drugs were administered by gastric gavage while suspended in 5% arabic gum (0.2 ml/100 g body weight), and blood pressure (BP) and heart rate (HR) were measured at the tail by BP Recorder W+W. Blood pressure and heart rate were measured on the first and fourth day of treatment 1 hour before and 1 and 5 hours after drug administration.", "units": {"Change in BP, 1 hr after dose, first day": "mm Hg"}, "values": [{"smiles": "C=CCN1C[C@H](CC(C#N)C(N)=O)C[C@@H]2c3cccc4[nH]cc(c34)C[C@H]21", "note": "(stereo partly drawn) [355/1266, 2-Cyano-3-(6'-allylergoline-8'β)-propionamide]", "Change in BP, 1 hr after dose, first day": -14}, {"smiles": "CCCN1C[C@H](CC(C#N)C(N)=O)C[C@@H]2c3cccc4[nH]cc(c34)C[C@H]21", "note": "(stereo partly drawn) [355/1282, 2-Cyano-3-(6'n-propylergoline-8'β)-propionamide]", "Change in BP, 1 hr after dose, first day": -20}]}, {"system": "spontaneously hypertensive male rats, strain MHS", "test": "Anti-hypertensive activity in the spontaneously hypertensive rat (MHS): blood pressure and heart rate at the tail", "assay_type": "in vivo", "conditions": "2 mg/kg os, first day, 5 hrs after dose", "experimental": "as §1, §2", "units": {"Change in BP, 5 hrs after dose, first day": "mm Hg"}, "values": [{"smiles": "C=CCN1C[C@H](CC(C#N)C(N)=O)C[C@@H]2c3cccc4[nH]cc(c34)C[C@H]21", "note": "(stereo partly drawn) [355/1266, 2-Cyano-3-(6'-allylergoline-8'β)-propionamide]", "Change in BP, 5 hrs after dose, first day": -15}, {"smiles": "CCCN1C[C@H](CC(C#N)C(N)=O)C[C@@H]2c3cccc4[nH]cc(c34)C[C@H]21", "note": "(stereo partly drawn) [355/1282, 2-Cyano-3-(6'n-propylergoline-8'β)-propionamide]", "Change in BP, 5 hrs after dose, first day": -10}]}, {"system": "spontaneously hypertensive male rats, strain MHS", "test": "Anti-hypertensive activity in the spontaneously hypertensive rat (MHS): blood pressure and heart rate at the tail", "assay_type": "in vivo", "conditions": "2 mg/kg os, fourth day, 1 hr after dose", "experimental": "as §1, §2", "units": {"Change in BP, 1 hr after dose, fourth day": "mm Hg"}, "values": [{"smiles": "C=CCN1C[C@H](CC(C#N)C(N)=O)C[C@@H]2c3cccc4[nH]cc(c34)C[C@H]21", "note": "(stereo partly drawn) [355/1266, 2-Cyano-3-(6'-allylergoline-8'β)-propionamide]", "Change in BP, 1 hr after dose, fourth day": -25}, {"smiles": "CCCN1C[C@H](CC(C#N)C(N)=O)C[C@@H]2c3cccc4[nH]cc(c34)C[C@H]21", "note": "(stereo partly drawn) [355/1282, 2-Cyano-3-(6'n-propylergoline-8'β)-propionamide]", "Change in BP, 1 hr after dose, fourth day": -15}]}, {"system": "spontaneously hypertensive male rats, strain MHS", "test": "Anti-hypertensive activity in the spontaneously hypertensive rat (MHS): blood pressure and heart rate at the tail", "assay_type": "in vivo", "conditions": "2 mg/kg os, fourth day, 5 hrs after dose", "experimental": "as §1, §2", "units": {"Change in BP, 5 hrs after dose, fourth day": "mm Hg"}, "values": [{"smiles": "C=CCN1C[C@H](CC(C#N)C(N)=O)C[C@@H]2c3cccc4[nH]cc(c34)C[C@H]21", "note": "(stereo partly drawn) [355/1266, 2-Cyano-3-(6'-allylergoline-8'β)-propionamide]", "Change in BP, 5 hrs after dose, fourth day": -45}, {"smiles": "CCCN1C[C@H](CC(C#N)C(N)=O)C[C@@H]2c3cccc4[nH]cc(c34)C[C@H]21", "note": "(stereo partly drawn) [355/1282, 2-Cyano-3-(6'n-propylergoline-8'β)-propionamide]", "Change in BP, 5 hrs after dose, fourth day": -25}]}, {"system": "spontaneously hypertensive male rats, strain MHS", "test": "Anti-hypertensive activity in the spontaneously hypertensive rat (MHS): blood pressure and heart rate at the tail", "assay_type": "in vivo", "conditions": "5 mg/kg os, first day, 1 hr after dose", "experimental": "as §1, §2", "units": {"Change in BP, 1 hr after dose, first day": "mm Hg"}, "values": [{"smiles": "C=CCN1C[C@H](CC(C#N)C(N)=O)C[C@@H]2c3cccc4[nH]cc(c34)C[C@H]21", "note": "(stereo partly drawn) [355/1266, 2-Cyano-3-(6'-allylergoline-8'β)-propionamide]", "Change in BP, 1 hr after dose, first day": -14}, {"smiles": "CCCN1C[C@H](CC(C#N)C(=O)NCC)C[C@@H]2c3cccc4[nH]cc(c34)C[C@H]21", "note": "(stereo partly drawn) [355/1281, 2-Cyano-3-(6'-n-propylergoline-8'β)-N-ethyl-propionamide]", "Change in BP, 1 hr after dose, first day": -25}, {"smiles": "CCCN1C[C@H](CC(C#N)C(N)=O)C[C@@H]2c3cccc4[nH]cc(c34)C[C@H]21", "note": "(stereo partly drawn) [355/1282, 2-Cyano-3-(6'n-propylergoline-8'β)-propionamide]", "Change in BP, 1 hr after dose, first day": -40}]}, {"system": "spontaneously hypertensive male rats, strain MHS", "test": "Anti-hypertensive activity in the spontaneously hypertensive rat (MHS): blood pressure and heart rate at the tail", "assay_type": "in vivo", "conditions": "5 mg/kg os, first day, 5 hrs after dose", "experimental": "as §1, §2", "units": {"Change in BP, 5 hrs after dose, first day": "mm Hg"}, "values": [{"smiles": "C=CCN1C[C@H](CC(C#N)C(N)=O)C[C@@H]2c3cccc4[nH]cc(c34)C[C@H]21", "note": "(stereo partly drawn) [355/1266, 2-Cyano-3-(6'-allylergoline-8'β)-propionamide]", "Change in BP, 5 hrs after dose, first day": -10}, {"smiles": "CCCN1C[C@H](CC(C#N)C(=O)NCC)C[C@@H]2c3cccc4[nH]cc(c34)C[C@H]21", "note": "(stereo partly drawn) [355/1281, 2-Cyano-3-(6'-n-propylergoline-8'β)-N-ethyl-propionamide]", "Change in BP, 5 hrs after dose, first day": -15}, {"smiles": "CCCN1C[C@H](CC(C#N)C(N)=O)C[C@@H]2c3cccc4[nH]cc(c34)C[C@H]21", "note": "(stereo partly drawn) [355/1282, 2-Cyano-3-(6'n-propylergoline-8'β)-propionamide]", "Change in BP, 5 hrs after dose, first day": -45}]}, {"system": "spontaneously hypertensive male rats, strain MHS", "test": "Anti-hypertensive activity in the spontaneously hypertensive rat (MHS): blood pressure and heart rate at the tail", "assay_type": "in vivo", "conditions": "5 mg/kg os, fourth day, 1 hr after dose", "experimental": "as §1, §2", "units": {"Change in BP, 1 hr after dose, fourth day": "mm Hg"}, "values": [{"smiles": "C=CCN1C[C@H](CC(C#N)C(N)=O)C[C@@H]2c3cccc4[nH]cc(c34)C[C@H]21", "note": "(stereo partly drawn) [355/1266, 2-Cyano-3-(6'-allylergoline-8'β)-propionamide]", "Change in BP, 1 hr after dose, fourth day": -35}, {"smiles": "CCCN1C[C@H](CC(C#N)C(=O)NCC)C[C@@H]2c3cccc4[nH]cc(c34)C[C@H]21", "note": "(stereo partly drawn) [355/1281, 2-Cyano-3-(6'-n-propylergoline-8'β)-N-ethyl-propionamide]", "Change in BP, 1 hr after dose, fourth day": -30}, {"smiles": "CCCN1C[C@H](CC(C#N)C(N)=O)C[C@@H]2c3cccc4[nH]cc(c34)C[C@H]21", "note": "(stereo partly drawn) [355/1282, 2-Cyano-3-(6'n-propylergoline-8'β)-propionamide]", "Change in BP, 1 hr after dose, fourth day": -25}]}, {"system": "spontaneously hypertensive male rats, strain MHS", "test": "Anti-hypertensive activity in the spontaneously hypertensive rat (MHS): blood pressure and heart rate at the tail", "assay_type": "in vivo", "conditions": "5 mg/kg os, fourth day, 5 hrs after dose", "experimental": "as §1, §2", "units": {"Change in BP, 5 hrs after dose, fourth day": "mm Hg"}, "values": [{"smiles": "C=CCN1C[C@H](CC(C#N)C(N)=O)C[C@@H]2c3cccc4[nH]cc(c34)C[C@H]21", "note": "(stereo partly drawn) [355/1266, 2-Cyano-3-(6'-allylergoline-8'β)-propionamide]", "Change in BP, 5 hrs after dose, fourth day": -60}, {"smiles": "CCCN1C[C@H](CC(C#N)C(=O)NCC)C[C@@H]2c3cccc4[nH]cc(c34)C[C@H]21", "note": "(stereo partly drawn) [355/1281, 2-Cyano-3-(6'-n-propylergoline-8'β)-N-ethyl-propionamide]", "Change in BP, 5 hrs after dose, fourth day": -35}, {"smiles": "CCCN1C[C@H](CC(C#N)C(N)=O)C[C@@H]2c3cccc4[nH]cc(c34)C[C@H]21", "note": "(stereo partly drawn) [355/1282, 2-Cyano-3-(6'n-propylergoline-8'β)-propionamide]", "Change in BP, 5 hrs after dose, fourth day": -30}]}]}
